From patent US11840517B2, “Lappaconitine derivative with analgesic activity, and preparation and application thereof” (priority 2021, dated 2023)

Tested on: Kunming mice
Assay: Analgesic activity by acetic acid-induced writhing method
Type: in vivo
Details: Mus musculus, sc, subcutaneous, 15 min before i.p. 0.7% acetic acid, writhing inhibition vs blank group, read-out: Analgesia rate ± SEM (%); for inhibition in vivo at 10 mg/kg: Dosing concentration 10 mg/kg
Protocol: The experimental animals were Kunming mice (male:female=1:1), weighed 22±2 g, which were provided by Chengdu dossy experimental animals Co., ltd., China. The mice were kept in the animal room of the School of Life Science and Engineering, Southwest Jiaotong University, where the animal room was set at a temperature of 23±2° C., a humidity of 55±5% and a photoperiod of 16:8 h (L:D). Before the experiment, the mice were freely fed for 2-3 days with water and feed to adapt to the new environment. Then, the mice were treated by water fasting for 12 h. 10 animals were allocated to each group to ensure that there are at least 6 sets of valid data in each group. The animal experiments were carried out in strict accordance with the national regulations on the management of experimental animals.
The compounds prepared in the examples provided herein and the positive control lappaconitine were all dissolved with 0.1 mol/L HCl according to the amount of the substance ratio of 1:1, and then diluted with physiological saline to a concentration to be determined. The samples to be tested were the compounds prepared the examples provided herein; the positive control was lappaconitine; and the blank control was physiological saline containing 0.1 mol/L HCl.
The animals in the control groups were subjected to the same treatment as those in the experimental group except that the samples to be test were replaced with physiological saline.
10 mice were randomly selected, male:female=1:1, were placed in independent cages. Each mouse was injected subcutaneously with the sample solution mentioned above at a dose of 0.1 mL/10 g body weight. After 15 min, a 0.7% acetic acid solution was intraperitoneally injected. The number of writhing reactions in each mouse within 15 minutes was recorded. The group that the mice were injected with physiological saline subcutaneously was the blank group; the group that the mice were injected with the sample to be tested was the experimental group; and the group that the mice were injected with lappaconitine was the positive group. The analgesic activity was represented by a percentage of the reduced number of writhing compared to the blank group (writhing inhibition rate), which were specifically as follows: writhing inhibition rate (analgesic activity)=(average number of writhing times in the blank group-average number of writhing times in the experimental group)/average number of writhing times in the blank group×100%.

SMILES | inhibition in vivo at 10 mg/kg | inhibition in vivo at 3.5 mg/kg (Dosing concentration 3.5 mg/kg)
CCOC(=O)Nc1ccccc1C(=O)O[C@@]12CC[C@H](OC)C34C1CC([C@H]3N(CC)C2)[C@@]1(O)C[C@H](OC)[C@H]2CC4[C@]1(O)[C@H]2OC (some centres unmarked) [Compound 21] | 16.4 ± 11.5% | –
CCN1C[C@]2(OC(=O)c3ccccc3NC(=O)C3CCCC3)CC[C@H](OC)C34C2CC([C@@H]13)[C@@]1(O)C[C@H](OC)[C@H]2CC4[C@]1(O)[C@H]2OC (some centres unmarked) [Compound 33] | 56.9 ± 3.82% | –
CCN1C[C@]2(OC(=O)c3ccccc3NS(C)(=O)=O)CC[C@H](OC)[C@@]34C2CC([C@@H]13)[C@@]1(O)C[C@H](OC)[C@H]2CC4[C@]1(O)[C@H]2OC (some centres unmarked) [Compound 17] | 22.8 ± 7.58% | –
CCN1C[C@]2(OC(=O)c3ccccc3NC(=O)OC(C)C)CC[C@H](OC)[C@@]34C2CC([C@@H]13)[C@@]1(O)C[C@H](OC)[C@H]2CC4[C@]1(O)[C@H]2OC (some centres unmarked) [Compound 14] | 28.4 ± 4.98% | –
CCN1C[C@]2(OC(=O)c3ccccc3NS(=O)(=O)c3ccc(C)cc3)CC[C@H](OC)[C@@]34C2CC([C@@H]13)[C@@]1(O)C[C@H](OC)[C@H]2CC4[C@]1(O)[C@H]2OC (some centres unmarked) [Compound 15] | – | 27.7 ± 12.9%
CCN1C[C@]2(OC(=O)c3ccccc3NS(=O)(=O)c3cccc4c(N(C)C)cccc34)CC[C@H](OC)[C@@]34C2CC([C@@H]13)[C@@]1(O)C[C@H](OC)[C@H]2CC4[C@]1(O)[C@H]2OC (some centres unmarked) [Compound 10] | 42.5 ± 2.56% | –
CCN1C[C@]2(OC(=O)c3ccccc3NS(=O)(=O)CC)CC[C@H](OC)C34C2CC([C@@H]13)[C@@]1(O)C[C@H](OC)[C@H]2CC4[C@]1(O)[C@H]2OC (some centres unmarked) [Compound 27] | 4.02 ± 9.5% | –
CCN1C[C@]2(OC(=O)c3ccccc3NC(=O)c3ccc(I)cc3)CC[C@H](OC)C3C2C[C@@H]([C@@H]1C)[C@@]1(O)CC(OC)[C@H]2CC3[C@]1(O)[C@H]2OC (some centres unmarked) [Compound 43] | 31.1 ± 8.56% | –
CCN1C[C@]2(OC(=O)c3ccccc3NC(=O)C3CCCCC3)CC[C@H](OC)C3C2C[C@@H]([C@@H]1C)[C@@]1(O)CC(OC)[C@H]2CC3[C@]1(O)[C@H]2OC (some centres unmarked) [Compound 37] | 34.5 ± 4.68% | –
CCN1C[C@]2(OC(=O)c3ccccc3NC(=O)CC(C)(C)C)CC[C@H](OC)C3C2C[C@@H]([C@@H]1C)[C@@]1(O)CC(OC)[C@H]2CC3[C@]1(O)[C@H]2OC (some centres unmarked) [Compound 47] | 24.9 ± 9.7% | –
CCN1C[C@]2(OC(=O)c3ccccc3NS(=O)(=O)c3ccccc3F)CC[C@H](OC)[C@@]34C2CC([C@@H]13)[C@@]1(O)C[C@H](OC)[C@H]2CC4[C@]1(O)[C@H]2OC (some centres unmarked) [Compound 6] | 60.3 ± 5.94% | –
